Experimental data: PubChem BioAssay (NCI)
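Interpolation was linear, between the two tested concentrations surrounding the appropriate level; five concentrations were tested over 48 hours in 96-well plates. TGI: concentration producing complete growth inhibition.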

Key:
Test in all cases: NCI tumour cell line growth inhibition, 48 h
SK-MEL-5 melanoma = test system: SK-MEL-5 melanoma
SF-268 CNS = test system: SF-268 CNS
HOP-62 NSCLC = test system: HOP-62 NSCLC
DU-145 prostate = test system: DU-145 prostate
M14 melanoma = test system: M14 melanoma
SN12C renal = test system: SN12C renal
OVCAR-3 ovarian = test system: OVCAR-3 ovarian
CCRF-CEM leukemia = test system: CCRF-CEM leukemia
HL-60(TB) leukemia = test system: HL-60(TB) leukemia
RXF 393 renal = test system: RXF 393 renal
HOP-92 NSCLC = test system: HOP-92 NSCLC
MOLT-4 leukemia = test system: MOLT-4 leukemia
OVCAR-5 ovarian = test system: OVCAR-5 ovarian
NCI-H226 lung = test system: NCI-H226 lung
ACHN renal = test system: ACHN renal
SF-295 CNS = test system: SF-295 CNS
K-562 leukemia = test system: K-562 leukemia
NCI-H460 lung = test system: NCI-H460 lung
MALME-3M melanoma = test system: MALME-3M melanoma
786-0 renal = test system: 786-0 renal

Compound | TGI (SK-MEL-5 melanoma) | TGI (SF-268 CNS) | TGI (HOP-62 NSCLC) | TGI (DU-145 prostate) | TGI (M14 melanoma) | TGI (SN12C renal) | TGI (OVCAR-3 ovarian) | TGI (CCRF-CEM leukemia) | TGI (HL-60(TB) leukemia) | TGI (RXF 393 renal) | TGI (HOP-92 NSCLC) | TGI (MOLT-4 leukemia) | TGI (OVCAR-5 ovarian) | TGI (NCI-H226 lung) | TGI (ACHN renal) | TGI (SF-295 CNS) | TGI (K-562 leukemia) | TGI (NCI-H460 lung) | TGI (MALME-3M melanoma) | TGI (786-0 renal)
CC(OCc1ccccc1)C(NC(=O)C1CSSCC(NC(=O)C(Cc2ccccc2)NC(=O)OCc2ccccc2)C(=O)NC(Cc2ccccc2)C(=O)NC(Cc2cn(C=O)c3ccccc23)C(=O)NC(CCCCNC(=O)OCc2ccccc2)C(=O)NC(C(C)OCc2ccccc2)C(=O)N1)C(N)=O (stereo not given) | > 73.8 µM | > 100 µM | > 100 µM | > 100 µM | > 79.1 µM | > 100 µM | 34 µM | > 100 µM | 2.89 µM | > 100 µM | > 100 µM | > 37.9 µM | > 100 µM | > 100 µM | > 100 µM | > 100 µM | > 100 µM | > 61.8 µM | > 90.4 µM | > 86.9 µM
O=C(CCc1cccc(O)c1)NCCc1cccc(OCc2ccccc2)c1 | 29.7 µM | 43 µM | 30.6 µM | > 80 µM | 30.2 µM | 45.1 µM | 26 µM | 42.4 µM | > 100 µM | 46.4 µM | 33.8 µM | 43.5 µM | 57.9 µM | 31.5 µM | > 78.3 µM | 32.9 µM | 71.3 µM | 34.5 µM | 39.2 µM | 67.5 µM
O=C1N[C@@H]2c3c(Br)sc(Br)c3C(=O)[C@@H]2N1 | 23.9 µM | 13.8 µM | 20.6 µM | 17.2 µM | 16.5 µM | 14.5 µM | 6.72 µM | 3.29 µM | 5.36 µM | 14.3 µM | 12.5 µM | 9.08 µM | 35.1 µM | 91.2 µM | 14.1 µM | 29.5 µM | > 100 µM | 18.3 µM | 18.3 µM | 6.4 µM
CC1(C)C(=O)C2(C#N)CCC1C2 (stereo not given) | > 100 µM | > 100 µM | > 100 µM | > 100 µM | > 100 µM | > 100 µM | > 100 µM | > 100 µM | > 100 µM | > 100 µM | > 100 µM | > 100 µM | > 100 µM | > 100 µM | > 100 µM | > 100 µM | > 100 µM | > 100 µM | > 100 µM | > 100 µM
CNC(=O)OCCN1c2ccccc2Sc2ccccc21 | > 100 µM | > 100 µM | 89.2 µM | > 100 µM | > 100 µM | > 100 µM | > 100 µM | > 100 µM | > 100 µM | 99.2 µM | > 100 µM | > 100 µM | > 100 µM | > 100 µM | > 100 µM | > 100 µM | > 100 µM | > 100 µM | > 100 µM | > 100 µM
COc1ccc2[nH]c3c(C)c4cnccc4c(C)c3c2c1 | > 10 µM | > 10 µM | 2.78 µM | 9.93 µM | 2.54 µM | > 10 µM | 2.43 µM | > 10 µM | 4.64 µM | 6.02 µM | > 10 µM | > 10 µM | > 10 µM | 9.27 µM | > 10 µM | > 10 µM | > 10 µM | 3.58 µM | 2.82 µM | 1.64 µM
COc1ccc(C2C(Cl)C(=O)N2NC(=O)c2ccc(N)cc2)cc1OC (stereo not given) | 26.3 µM | 36.8 µM | 32.6 µM | 32.1 µM | 22.6 µM | 24.5 µM | 13.1 µM | 4.45 µM | 4.54 µM | 30.4 µM | 5.07 µM | 5.16 µM | 34.8 µM | 38.3 µM | 26.9 µM | 18.4 µM | 16.5 µM | 51.8 µM | 25.6 µM | 8.59 µM
O=c1c2ncn(CCCl)c2n(-c2ccccc2)c(=S)n1-c1ccccc1 | > 100 µM | > 100 µM | > 100 µM | > 100 µM | > 100 µM | > 100 µM | > 100 µM | > 100 µM | > 100 µM | > 100 µM | > 100 µM | > 100 µM | > 100 µM | > 100 µM | > 100 µM | > 100 µM | > 100 µM | > 100 µM | > 100 µM | > 100 µM
Cc1cc(-c2nc3cc(F)ccc3s2)ccc1NC(=O)C(C)N (stereo not given) | 13.6 µM | 9.5 µM | 8.32 µM | 8.17 µM | 9.74 µM | 9.49 µM | 7.32 µM | 3.25 µM | 1.34 µM | 8.33 µM | 9.41 µM | 8.42 µM | 5.52 µM | > 25 µM | 7.83 µM | 7.94 µM | 14.5 µM | 5.98 µM | 25 µM | 7.2 µM
